Reference: PubChem BioAssay AID248 (DTP/NCI, 2004)
Inconclusive results and toxic doses are left out. Cut-off read from the data, not from the text of the source: active = T/C of 150% or more; inactive = T/C below 125%.

System: L1210 leukemia ip in BDF1 mice, survival T/C
Experiment: NCI In Vivo Anticancer Drug Screen. Data for tumor model L1210 Leukemia (intraperitoneal) in B6D2F1 (BDF1) mice
Details: endpoint: mean survival time, higher = longer survival
Method in brief: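 Transplantable tumor model; survival measured in treated vs vehicle control mice. Value = treated/control.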

[1] = dose: 100.0 mg/kg/injection, schedule: Q01DX009 (ip), vehicle: Klucel (hydroxypropylcellulose) (HPC)
[2] = dose: 400.0 mg/kg/injection, schedule: Q01DX009 (ip), vehicle: Klucel (hydroxypropylcellulose) (HPC)
[3] = dose: 200.0 mg/kg/injection, schedule: Q01DX009 (ip), vehicle: Klucel (hydroxypropylcellulose) (HPC)
[4] = dose: 100.0 mg/kg/injection, schedule: Q01DX001 (ip), vehicle: carboxymethylcellulose (CMC)
[5] = dose: 200.0 mg/kg/injection, schedule: Q01DX001 (ip), vehicle: carboxymethylcellulose (CMC)
[6] = dose: 400.0 mg/kg/injection, schedule: Q01DX001 (ip), vehicle: carboxymethylcellulose (CMC)
[7] = dose: 100.0 mg/kg/injection, schedule: Q01DX001 (ip), vehicle: saline
[8] = dose: 200.0 mg/kg/injection, schedule: Q01DX001 (ip), vehicle: saline
[9] = dose: 400.0 mg/kg/injection, schedule: Q01DX001 (ip), vehicle: saline
[10] = dose: 100.0 mg/kg/injection, schedule: Q01DX005 (ip), vehicle: saline
[11] = dose: 200.0 mg/kg/injection, schedule: Q01DX005 (ip), vehicle: saline
[12] = dose: 100.0 mg/kg/injection, schedule: Q04DX002 (ip), vehicle: Klucel (hydroxypropylcellulose) (HPC)
[13] = dose: 200.0 mg/kg/injection, schedule: Q04DX002 (ip), vehicle: Klucel (hydroxypropylcellulose) (HPC)
[14] = dose: 400.0 mg/kg/injection, schedule: Q04DX002 (ip), vehicle: Klucel (hydroxypropylcellulose) (HPC)
[15] = dose: 400.0 mg/kg/injection, schedule: Q01DX009 (ip), vehicle: saline
[16] = dose: 100.0 mg/kg/injection, schedule: Q04DX003 (ip), vehicle: saline with Tween-80
[17] = dose: 200.0 mg/kg/injection, schedule: Q04DX003 (ip), vehicle: saline with Tween-80
[18] = dose: 400.0 mg/kg/injection, schedule: Q04DX003 (ip), vehicle: saline with Tween-80

Measured: T/C

NC(N)=N/C(N)=N/NC(=O)c1ccncc1
inactive: dose: 66.0 mg/kg/injection, schedule: Q01DX Z (ip), vehicle: methylcellulose (MC) 100 % of control | dose: 93.0 mg/kg/injection, schedule: Q01DX Z (ip), vehicle: methylcellulose (MC) 89 % of control | dose: 140.0 mg/kg/injection, schedule: Q01DX Z (ip), vehicle: methylcellulose (MC) 91 % of control

CC1CCCC(C)(C)C1NCc1cc(Br)cc(Br)c1O (centres undefined)
inactive: [1] 107 % of control | [2] 88 % of control

O=S(=O)(c1ccc(Nc2nnc(-c3ccccc3)s2)cc1)N1CCCCC1
inactive: [1] 96 % of control | [3] 89 % of control | [2] 86 % of control

COC(=O)C1(C(=O)OC)C2CC=C(C)CC21 (centres undefined)
inactive: dose: 100.0 mg/kg/injection, schedule: Q01DX009 (ip), vehicle: acetone 100 % of control | dose: 200.0 mg/kg/injection, schedule: Q01DX009 (ip), vehicle: acetone 98 % of control | dose: 400.0 mg/kg/injection, schedule: Q01DX009 (ip), vehicle: acetone 90 % of control

O=C(CN1CC1)NCCCCCCCNC(=O)CN1CC1
active: dose: 33.0 mg/kg/injection, schedule: Q01DX001 (ip), vehicle: carboxymethylcellulose (CMC) 154 % of control
inactive: dose: 6.5 mg/kg/injection, schedule: Q01DX001 (ip), vehicle: carboxymethylcellulose (CMC) 120 % of control | dose: 7.0 mg/kg/injection, schedule: Q01DX009 (ip), vehicle: carboxymethylcellulose (CMC) 94 % of control | dose: 9.7 mg/kg/injection, schedule: Q01DX001 (ip), vehicle: carboxymethylcellulose (CMC) 123 % of control | dose: 11.0 mg/kg/injection, schedule: Q01DX009 (ip), vehicle: carboxymethylcellulose (CMC) 100 % of control | dose: 16.0 mg/kg/injection, schedule: Q01DX009 (ip), vehicle: carboxymethylcellulose (CMC) 94 % of control | dose: 25.0 mg/kg/injection, schedule: Q01DX009 (ip), vehicle: carboxymethylcellulose (CMC) 103 % of control

COC1=C(Nc2ccccc2C)C(=O)C(OC)=C(Nc2ccccc2C)C1=O
inactive: dose: 50.0 mg/kg/injection, schedule: Q01DX001 (ip), vehicle: carboxymethylcellulose (CMC) 87 % of control | [4] 96 % of control | [5] 98 % of control | [6] 96 % of control

CCC1CN1C(=O)c1ccc(OP(=O)(N2CC2CC)N2CC2CC)cc1 (centres undefined)
inactive: dose: 50.0 mg/kg/injection, schedule: Q01DX001 (ip), vehicle: saline 102 % of control | [7] 102 % of control | [8] 105 % of control | [9] 102 % of control

Clc1ccc(CSc2ncc(Br)c(N3CC3)n2)cc1
inactive: dose: 100.0 mg/kg/injection, schedule: Q01DX Z (ip), vehicle: methylcellulose (MC) 93 % of control | dose: 200.0 mg/kg/injection, schedule: Q01DX Z (ip), vehicle: methylcellulose (MC) 88 % of control

O=C(O)c1ccc(N=Nc2nc3[nH]c(=O)[nH]c(=O)c3[nH]2)cc1
inactive: dose: 50.0 mg/kg/injection, schedule: Q01DX009 (ip), vehicle: Klucel (hydroxypropylcellulose) (HPC) 97 % of control | [1] 97 % of control | [3] 87 % of control

CC(=O)CC(=O)N(c1ccccn1)c1ccccn1
inactive: [4] 104 % of control | [5] 98 % of control | [6] 98 % of control

[O-]/[N+](=N/O)c1ccccc1
inactive: [7] 92 % of control

CN(C)CCCN
inactive: [7] 97 % of control | [8] 108 % of control | [9] 95 % of control

CCOC(=O)NP(=O)(Nc1ccccc1)Nc1ccccc1
inactive: dose: 50.0 mg/kg/injection, schedule: Q01DX001 (ip), vehicle: alcohol 104 % of control | dose: 100.0 mg/kg/injection, schedule: Q01DX001 (ip), vehicle: alcohol 98 % of control | dose: 200.0 mg/kg/injection, schedule: Q01DX001 (ip), vehicle: alcohol 102 % of control | dose: 400.0 mg/kg/injection, schedule: Q01DX001 (ip), vehicle: alcohol 104 % of control

Nc1nc(N)c2nc(CNc3ccccc3)cnc2n1
inactive: dose: 20.0 mg/kg/injection, schedule: Q01DX009 (ip), vehicle: Klucel (hydroxypropylcellulose) (HPC) 96 % of control | dose: 40.0 mg/kg/injection, schedule: Q01DX009 (ip), vehicle: Klucel (hydroxypropylcellulose) (HPC) 105 % of control | dose: 80.0 mg/kg/injection, schedule: Q01DX009 (ip), vehicle: Klucel (hydroxypropylcellulose) (HPC) 96 % of control

Cc1cn(C2CC(OS(C)(=O)=O)C(CO)O2)c(=O)[nH]c1=O (centres undefined)
inactive: [10] 102 % of control | [11] 104 % of control

COc1ccc(/C(=N\O)C(C)=O)cc1OC
inactive: [12] 103 % of control | [13] 103 % of control | [14] 91 % of control

CCCCCCCCCCCC(=O)N/N=C(\c1ccccc1)c1ccc(Cl)cc1
inactive: [12] 103 % of control | [13] 103 % of control | [14] 122 % of control

O=c1[nH]c(=O)c2n[nH]c(C3OCC(O)C3O)c2[nH]1 (centres undefined)
inactive: [10] 94 % of control | [11] 97 % of control

CC(=O)N1CCn2nccc21
inactive: dose: 100.0 mg/kg/injection, schedule: Q01DX009 (ip), vehicle: water 103 % of control | dose: 100.0 mg/kg/injection, schedule: Q04DX003 (ip), vehicle: water 97 % of control | dose: 200.0 mg/kg/injection, schedule: Q01DX009 (ip), vehicle: water 112 % of control | dose: 200.0 mg/kg/injection, schedule: Q04DX003 (ip), vehicle: water 106 % of control | dose: 240.0 mg/kg/injection, schedule: Q01DX009 (ip), vehicle: saline 109 % of control | dose: 240.0 mg/kg/injection, schedule: Q01DX009 (ip), vehicle: water 110 % of control | [15] 122 % of control | dose: 400.0 mg/kg/injection, schedule: Q04DX003 (ip), vehicle: water 106 % of control | dose: 666.0 mg/kg/injection, schedule: Q01DX009 (ip), vehicle: saline 122 % of control | dose: 666.0 mg/kg/injection, schedule: Q01DX009 (ip), vehicle: water 90 % of control

O=C1CC(=O)NC(=O)N1
inactive: [16] 91 % of control | [17] 93 % of control | [18] 91 % of control

CCSC(C(O)C(O)C(O)C(O)CO)n1ccc(=O)[nH]c1=O (centres undefined)
inactive: dose: 100.0 mg/kg/injection, schedule: Q01DX001 (ip), vehicle: Klucel (hydroxypropylcellulose) (HPC) 100 % of control | dose: 100.0 mg/kg/injection, schedule: Q04DX003 (ip), vehicle: Klucel (hydroxypropylcellulose) (HPC) 88 % of control | [16] 103 % of control | dose: 200.0 mg/kg/injection, schedule: Q01DX001 (ip), vehicle: Klucel (hydroxypropylcellulose) (HPC) 100 % of control | dose: 200.0 mg/kg/injection, schedule: Q01DX009 (ip), vehicle: saline 93 % of control | dose: 200.0 mg/kg/injection, schedule: Q04DX003 (ip), vehicle: Klucel (hydroxypropylcellulose) (HPC) 93 % of control | [17] 94 % of control | dose: 400.0 mg/kg/injection, schedule: Q01DX001 (ip), vehicle: Klucel (hydroxypropylcellulose) (HPC) 102 % of control | [15] 94 % of control | dose: 400.0 mg/kg/injection, schedule: Q04DX003 (ip), vehicle: Klucel (hydroxypropylcellulose) (HPC) 87 % of control | [18] 92 % of control

CC(C)(C)c1ccc(N)cc1Br
inactive: dose: 12.5 mg/kg/injection, schedule: Q01DX009 (ip), vehicle: saline with Tween-80 95 % of control | dose: 25.0 mg/kg/injection, schedule: Q01DX009 (ip), vehicle: saline with Tween-80 93 % of control | dose: 50.0 mg/kg/injection, schedule: Q01DX009 (ip), vehicle: saline with Tween-80 97 % of control | [16] 92 % of control | [17] 96 % of control
